Laboratory results published in paper PMC9370530, “Modified Benzoxazole-Based VEGFR-2 Inhibitors and Apoptosis Inducers: Design, Synthesis, and Anti-Proliferative Evaluation” (Molecules, 2022).

Experiments:
[1] = biological target: T1, VEGFR-2 kinase (Homo sapiens, UniProt P35968); assay: In vitro VEGFR-2 kinase inhibitory assay (ELISA kit); format: biochemical; conditions: human VEGFR-2 ELISA kit; median of three experiments
T1 construct: purchased

[2] = test system: breast cancer (MCF-7); assay: In vitro anti-proliferative MTT assay, MCF-7; conditions: Homo sapiens, MCF7, 24 h, read-out: IC50 MCF-7
Description: (§6) This test was carried out on three different human cancer cell lines: MCF-7, HCT116, and HepG2 using the MTT method [66].
(§7) This test was carried out on three different human cancer cell lines: MCF-7, HCT116, and HepG2, We performed this colorimetric experiment with quantitative assessment of anticancer activity in accordance with the MTT method [1] The assay is based primarily on a biochemical reaction in which mitochondrial succinate dehydrogenase transforms yellow tetrazolium bromide (MTT) to a purple formazan derivative in live cells.
(§8) with 10% foetal bovine serum in general. In a 5 percent CO2 incubator at 37 °C, penicillin (100 units/mL) and streptomycin (100g/mL) were introduced. The cells were seeded at a density of 1.0x10^4 cells/well in a 96-well plate at 37 C for 48 hours under 5% CO2. […] The cells were given varying concentrations of the novel compounds and cultured for 24 hours. Then we add 20 l of MTT in a 5 mg/ml solution and let it sit for 4 hours.
(§9) 100 µl of DMSO was applied to each well to dissolve the purple formazan produced.
(§10) curve for each conc. using Graphpad Prism software (San Diego, CA. USA). The data presented are the mean of at least three separate experiments.
(§11) The IC50 of the selected derivatives were determined against VEGFR-2 kinase with enzyme linked immunosorbent assay (ELISA). We used a human VEGFR-2 ELISA kit. VEGFR-2 specific antibody was seeded on a 96 well microplate and 100 μL of solution of the standard or the tested compound was added. After incubation for 2.5 h. at room temperature and washing, 100 μL of prepared biotin antibody was added. Incubation of the plates for 1 h at room temperature and then washing were carried out before addition of streptavidin solution (100 μL). The mixture was incubated for 1h at room temperature and then washed. After that, 100 μL of tetramethybenzidine (TMB) substrate solution was added before incubation for half an hour at room temperature.
(§12) Finally, 50 μL of the stop solution was added immediately before the reading at 450 nm.
(§13) Percent inhibition was calculated by the comparison of compounds treated to control

[3] = test system: hepatocellular carcinoma (HepG2); assay: In vitro anti-proliferative MTT assay, HepG2; conditions: Homo sapiens, HepG2, 24 h, read-out: IC50 HepG2
Description: as §6, §7, §8, §9, §10, §11, §12, §13

[4] = test system: colorectal carcinoma (HCT116); assay: In vitro anti-proliferative MTT assay, HCT116; conditions: Homo sapiens, HCT-116, 24 h, read-out: IC50 HCT116
Description: as §6, §7, §8, §9, §10, §11, §12, §13

[5] = test system: HepG2 cells; assay: HepG2 cell cycle analysis (PI flow cytometry); format: cell-based, human; conditions: 2.43 μM of compound
Description: The most promising candidate, compound 8d, was further evaluated by analyzing its effect on cycle phases of the HepG2 cells. From the results presented in Table 3, it can be noticed that a large percentage (70.23%) of cells treated with 8d was accumulated at the pre-G1 phase compared to the 2.70% reported for control cells. This clearly indicates the ability of compound 8d to inhibit HepG2 cell proliferation efficiently at the pre-G1 phase (Figure 5).
HepG2 Cell Cycle Analysis was performed for compound 8d according to the methodology reported by Wang et al.. The Supplementary data provides further detailed information about the study. […]
(§1) HepG2 cells were cultured according to the methodology described by Wang et al. The cells were planted and cultured for 24 h in six-well plates. Each well had 2 × 10^5 cells in it. Then 10% fetal bovine serum (FBS) was added, and the cells were incubated at 37 °C with 5% CO2.
The medium was then changed. DMSO (1% v/v) containing 2.43 μM of compound 8d was substituted. Following that, the cells were rinsed in cold phosphate buffered saline. (PBS), then fixed in 70% ethyl alcohol, washed in PBS, and […]. After that, the DNA fluorochrome propidium iodide (PI) was maintained at […] for 1 5 minutes at 37 °C. A FACS Caliber flow cytometer was used to analyze the samples. […]

[6] = test system: TNF-α; assay: TNF-α level in HepG2 cells by qRT-PCR; format: cell-based; conditions: Homo sapiens, 2.43 µM for 24 h
Description: (§2) The inhibition of these mediators caused apoptosis of tumor cells. Therefore, further investigation was conducted to see how compound 8 affect these cytokines (TNF-α and IL-6). Compound 8d was added to HepG2 cells at a concentration of 2.43 µM for 24 h, then the levels of TNF-α and IL-6 were measured using the qRT-PCR method.
(§3) The effects of 8d on TNF-α and IL-6 were determined using the qRT-PCR technique. The Supplementary data provides further detailed information about the study. […]
as §1
(§4) The medium was then changed. DMSO (1% v/v) containing 2.43 μM of compound 8d was substituted. Following that, the cells were rinsed in cold phosphate buffered saline. […]
(§5) 1.5. Quantitative Real Time Reverse-Transcriptase PCR (qRT-PCR) technique The effects of compound 8d on the expression of TNF-α and IL-6 were determined using qRT-PCR technique. The quantity of immunomodulatory proteins (TNF-α and IL-6) in control and compound 8d (at the IC50 concentration)-treated HepG2 cells was assessed by qRT-PCR (reference). […]

[7] = test system: IL-6; assay: IL-6 level in HepG2 cells by qRT-PCR; format: cell-based; conditions: Homo sapiens, 2.43 µM for 24 h
Description: as §2, §3, §1, §4, §5

T1 sequence (P35968 20-1356): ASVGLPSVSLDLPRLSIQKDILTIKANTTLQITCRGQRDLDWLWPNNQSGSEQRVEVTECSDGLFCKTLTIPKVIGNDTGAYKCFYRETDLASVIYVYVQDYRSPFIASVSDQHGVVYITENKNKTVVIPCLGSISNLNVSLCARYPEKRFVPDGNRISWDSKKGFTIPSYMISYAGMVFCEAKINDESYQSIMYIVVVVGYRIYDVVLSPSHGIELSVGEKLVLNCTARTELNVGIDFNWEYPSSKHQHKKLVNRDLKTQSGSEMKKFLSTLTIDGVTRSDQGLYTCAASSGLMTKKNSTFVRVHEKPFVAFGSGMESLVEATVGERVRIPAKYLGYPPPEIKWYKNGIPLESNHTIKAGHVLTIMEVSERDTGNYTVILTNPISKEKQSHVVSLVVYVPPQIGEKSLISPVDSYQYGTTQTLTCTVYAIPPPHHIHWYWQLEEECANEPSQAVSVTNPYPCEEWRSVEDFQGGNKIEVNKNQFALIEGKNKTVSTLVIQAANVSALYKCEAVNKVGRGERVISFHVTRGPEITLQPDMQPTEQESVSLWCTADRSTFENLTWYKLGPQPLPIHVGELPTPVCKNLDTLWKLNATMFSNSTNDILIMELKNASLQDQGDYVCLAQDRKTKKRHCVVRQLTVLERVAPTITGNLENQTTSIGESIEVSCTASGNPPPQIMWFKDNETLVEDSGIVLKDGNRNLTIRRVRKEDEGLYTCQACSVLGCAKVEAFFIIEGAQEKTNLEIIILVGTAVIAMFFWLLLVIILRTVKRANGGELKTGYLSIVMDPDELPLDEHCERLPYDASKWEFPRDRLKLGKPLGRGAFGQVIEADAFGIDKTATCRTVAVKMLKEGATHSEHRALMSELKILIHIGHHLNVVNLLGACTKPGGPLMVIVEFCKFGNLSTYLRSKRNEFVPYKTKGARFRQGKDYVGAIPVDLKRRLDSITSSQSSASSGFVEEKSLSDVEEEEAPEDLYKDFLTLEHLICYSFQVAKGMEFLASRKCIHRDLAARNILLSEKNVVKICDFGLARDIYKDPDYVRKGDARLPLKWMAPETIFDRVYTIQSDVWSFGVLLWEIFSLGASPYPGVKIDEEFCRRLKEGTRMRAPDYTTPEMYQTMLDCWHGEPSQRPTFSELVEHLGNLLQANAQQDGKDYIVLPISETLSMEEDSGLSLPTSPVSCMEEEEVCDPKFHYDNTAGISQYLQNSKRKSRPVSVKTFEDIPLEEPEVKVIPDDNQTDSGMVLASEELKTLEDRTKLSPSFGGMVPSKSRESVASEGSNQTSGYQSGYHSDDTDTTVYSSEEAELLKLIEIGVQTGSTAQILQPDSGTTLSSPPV

| Structure (SMILES) | IC50 [1] [µM] | IC50 [2] [µM] | IC50 [3] [µM] | IC50 [4] [µM] | %Pre-G1 ([5]; control 2.70) [%] | %G2-M ([5]; control 19.31) [%] | %G0–G1 ([5]; control 39.81) [%] | %S ([5]; control 40.88) [%] | inhibition at 2.43 µM [6] [%] | inhibition at 2.43 µM [7] [%] |
| --- | --- | --- | --- | --- | --- | --- | --- | --- | --- | --- |
| Cc1ccc(NC(=O)c2ccc(NC(=O)CSc3nc4ccccc4o3)cc2)cc1 [Compound 8a, 4-(2-(Benzo[d]oxazol-2-ylthio)acetamido)-N-(p-tolyl)benzamide] | 0.0579 | 9.49 ± 0.75 | 10.4 ± 0.98 | 10.1 ± 0.95 |  |  |  |  |  |  |
| CC(=O)c1ccc(NC(=O)c2ccc(NC(=O)CSc3nc4cc(Cl)ccc4o3)cc2)cc1 [Compound 8g, N-(4-Acetylphenyl)-4-(2-((5-chlorobenzo[d]oxazol-2-yl)thio)acetamido) benzamide] |  | 12.5 ± 1.1 | 8.44 ± 0.65 | 10.4 ± 0.92 |  |  |  |  |  |  |
| Cc1ccc2oc(SCC(=O)Nc3ccc(C(=O)Nc4ccc([N+](=O)[O-])cc4)cc3)nc2c1 [Compound 8f, 4-(2-((5-Methylbenzo[d]oxazol-2-yl)thio)acetamido)-N-(4-nitrophenyl) benzamide] | 0.204 | 4.97 ± 0.32 | 4.41 ± 0.35 | 4 ± 0.33 |  |  |  |  |  |  |
| O=C(CSc1nc2cc(Cl)ccc2o1)Nc1ccc(C(=O)NCc2ccccc2)cc1 [Compound 8j, N-Benzyl-4-(2-((5-chlorobenzo[d]oxazol-2-yl)thio)acetamido)benzamide] |  | 16.9 ± 1.5 | 14.2 ± 1.1 | 18.2 ± 1.5 |  |  |  |  |  |  |
| Cc1ccc2oc(SCC(=O)Nc3ccc(C(=O)NCc4ccccc4)cc3)nc2c1 [Compound 8k, N-Benzyl-4-(2-((5-methylbenzo[d]oxazol-2-yl)thio)acetamido)benzamide] | 0.653 | 8.37 ± 0.77 | 10.1 ± 0.93 | 8.09 ± 0.71 |  |  |  |  |  |  |
| O=C(CSc1nc2ccccc2o1)Nc1ccc(C(=O)Nc2ccc([N+](=O)[O-])cc2)cc1 [Compound 8d, 4-(2-(Benzo[d]oxazol-2-ylthio)acetamido)-N-(4-nitrophenyl)benzamide] |  | 3.43 ± 0.15 | 2.43 ± 0.16 | 2.79 ± 0.19 | 70.23 | 19.1 | 31.1 | 49.8 | 90.5 | 92.2 |
| C[C@@H]1C[C@H]2[C@@H]3CCC4=CC(=O)C=C[C@]4(C)[C@@]3(F)[C@@H](O)C[C@]2(C)[C@@]1(O)C(=O)CO [Dexamethasone, reference compound] |  |  |  |  |  |  |  |  | 82.5 | 93.2 |
| O=C(CSc1nc2cc(Cl)ccc2o1)Nc1ccc(C(=O)Nc2ccc([N+](=O)[O-])cc2)cc1 [Compound 8e, 4-(2-((5-Chlorobenzo[d]oxazol-2-yl)thio)acetamido)-N-(4-nitrophenyl) benzamide] | 0.0741 | 5.69 ± 0.44 | 4.51 ± 0.35 | 3.29 ± 0.26 |  |  |  |  |  |  |

The next lines start with results.

| IC50 [1] [µM] | IC50 [2] [µM] | IC50 [3] [µM] | IC50 [4] [µM] | Structure (SMILES) | %Pre-G1 ([5]; control 2.70) [%] | %G2-M ([5]; control 19.31) [%] | %G0–G1 ([5]; control 39.81) [%] | %S ([5]; control 40.88) [%] | inhibition at 2.43 µM [6] [%] | inhibition at 2.43 µM [7] [%] |
| --- | --- | --- | --- | --- | --- | --- | --- | --- | --- | --- |
| 1.14 | 9.15 ± 0.85 | 8.16 ± 0.77 | 6.12 ± 0.55 | Cc1ccc(NC(=O)c2ccc(NC(=O)CSc3nc4cc(C)ccc4o3)cc2)cc1 [Compound 8c, 4-(2-((5-Methylbenzo[d]oxazol-2-yl)thio)acetamido)-N-(p-tolyl)benzamide] |  |  |  |  |  |  |
| 0.114 | 3.53 ± 0.28 | 2.76 ± 0.18 | 2.94 ± 0.19 | CC(=O)c1ccc(NC(=O)c2ccc(NC(=O)CSc3nc4cc(C)ccc4o3)cc2)cc1 [Compound 8h, N-(4-Acetylphenyl)-4-(2-((5-methylbenzo[d]oxazol-2-yl)thio)acetamido) benzamide] |  |  |  |  |  |  |
|  | 25.8 ± 2.1 | 28.6 ± 2.1 | 16.4 ± 1.3 | Cc1ccc2oc(SCC(=O)Nc3ccc(C(=O)NCCc4ccccc4)cc3)nc2c1 [Compound 8m, 4-(2-((5-Methylbenzo[d]oxazol-2-yl)thio)acetamido)-N-phenethylbenzamide] |  |  |  |  |  |  |
|  |  | 3.4 ± 0.25 | 5.3 ± 0.44 | CNC(=O)c1cc(Oc2ccc(NC(=O)Nc3ccc(Cl)c(C(F)(F)F)c3)cc2)ccn1 [Sorafenib, reference compound] |  |  |  |  |  |  |
|  | 12.5 ± 1.05 | 11.2 ± 0.95 | 14.2 ± 1.2 | O=C(CSc1nc2ccccc2o1)Nc1ccc(C(=O)NCCc2ccccc2)cc1 [Compound 8l, 4-(2-(Benzo[d]oxazol-2-ylthio)acetamido)-N-phenethylbenzamide] |  |  |  |  |  |  |
|  | 12.4 ± 0.92 | 10.4 ± 0.92 | 11.6 ± 0.91 | Cc1ccc(NC(=O)c2ccc(NC(=O)CSc3nc4cc(Cl)ccc4o3)cc2)cc1 [Compound 8b, 4-(2-((5-Chlorobenzo[d]oxazol-2-yl)thio)acetamido)-N-(p-tolyl)benzamide] |  |  |  |  |  |  |
| 0.317 | 10 ± 0.95 | 5.92 ± 0.47 | 8.53 ± 0.77 | O=C(CSc1nc2ccccc2o1)Nc1ccc(C(=O)NCc2ccccc2)cc1 [Compound 8i, 4-(2-(Benzo[d]oxazol-2-ylthio)acetamido)-N-benzylbenzamide] |  |  |  |  |  |  |
